Experimental data: patent publication US10111877B2, “Modulators of androgen synthesis” (Tangent Reprofiling Limited, priority 2012, dated 2018)
Like-named read-outs stand apart in the source and are kept apart here.

Experiments:
PC3 cells [1] = assay: Cell metabolism inhibition assay (Cell titre Blue) with fatty acids; type: cell-based; conditions: for Cellular Metabolic Activity: 100% = undrugged media
Experimental: A cell metabolism inhibition assay was performed to determine the effect of different fatty acids on cellular metabolic rate. The fatty acids tested were α-Linolenic acid, omega 3 fatty acid (ALA), Arachidonic acid, omega 6 fatty acid (AA), 9Z, 11E conjugated Linoleic acid, omega 7 fatty acid (CLA), Docosahexaenoic acid, omega 3 fatty acid (DHA), Eicosapentaenoic acid, omega 3 fatty acid (EPA), Oleic acid, omega 9 fatty acid (OA), Ricinoleic acid, omega 9 hydroxylated fatty acid (RA).
PC3 cells are from a cell line derived from a hormone refractory prostate cancer and are known to overexpress HSD10. PC3 cells were seeded at a density of 4,000 cells per well in a 96 well plate, and incubated at 37° C., 5% CO2 for 48 hours in standard growth media (F12K nutrient media, 7% Fetal Calf Serum, 2 mM L-Glutamine, 45 mg/L ascorbic acid). The media was then removed by pipette and replaced with the appropriate drug treatment as follows: 20 μM, or 40 μM, or 60 μM, or 80 μM, or 100 μM ALA in PC3 treatment media (F12K nutrient media, 125 uM fatty acid free BSA, 2 mM L-Glutamine, 45 mg/L ascorbic acid); 20 μM, or 40 μM, or 60 μM, or 80 μM, or 100 μM AA in PC3 treatment media; 20 μM, or 40 μM, or 60 μM, or 80 μM, or 100 μM CLA in PC3 treatment media; 20 μM, or 40 μM, or 60 μM, or 80 μM, or 100 μM DHA in PC3 treatment media; 20 μM, or 40 μM, or 60 μM, or 80 μM, or 100 μM EPA in PC3 treatment media; 20 μM, or 40 μM, or 60 μM, or 80 μM, or 100 μM OA in PC3 treatment media; and 20 μM, or 40 μM, or 60 μM, or 80 μM, or 100 μM RA in PC3 treatment media. After incubation in the drug treatment for 72 hours at 37° C., 5% CO2, 50 μL Cell titre Blue Assay Reagent was added to each well and the plate return to incubation at 37° C., 5% CO2, for a further 24 hours, at which time the absorbance at 620 nm was recorded. The reduction of absorbance at 620 nm represents a higher metabolic rate, and the data below has been normalized such that 100% represents cells that have been grown in the presence of undrugged media, and 0% represents wells containing no cells.

HSD10 = biological target: T1, HSD10 (Homo sapiens, UniProt Q99714); assay: HSD10 Enzyme Inhibition Assay; type: biochemical; conditions: 50 μM drug
T1 construct: endogenous in cells; host or cells: PC3 cells
T1 sequence (Q99714 1-261): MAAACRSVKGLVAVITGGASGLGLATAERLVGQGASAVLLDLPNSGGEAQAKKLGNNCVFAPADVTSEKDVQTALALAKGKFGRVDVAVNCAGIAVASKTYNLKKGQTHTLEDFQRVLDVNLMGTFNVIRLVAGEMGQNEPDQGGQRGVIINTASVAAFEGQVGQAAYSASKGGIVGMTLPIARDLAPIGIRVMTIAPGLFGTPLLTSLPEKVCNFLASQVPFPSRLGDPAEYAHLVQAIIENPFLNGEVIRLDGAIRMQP
Experimental: An HSD10 inhibition assay was performed to determine the effect of several anti-psychotics on enzyme activity.
(§1) PC3 cells are from a cell line derived from a hormone refractory prostate cancer and are known to overexpress HSD10. […] Cells line tests were carried out in presence and absence of testosterone for comparison. After incubation in the drug treatment for 96 hours at 37° C., 5% CO2, the supernatant was removed from all wells of cells, and cells washed with 200 μL PBS.
(§2) After removal of the PBS, cell number was determined using a lysed cell LDH assay (CytoTox 96 Non-radioactive cytotoxicity assay (LDH Assay); Promega, Co., Madison Wis.). Cells were lysed with 0.9% Triton-X in PBS for 2 hours at 37° C., 5% CO2 and 50 μL of this cell lysate was transferred to a fresh 96 well plate. About 50 μL of CytoTox 96 assay reagent was added to the transferred cell lysate and this mixture was incubated at room temperature in the dark for 20 minutes. After the addition of 50 μL stop reagent, the optical absorbance was determined for each incubated mixture at 492 nm. […] The mean and standard error was calculated from at least 3 wells.

PC3 cells [2] = assay: Cell growth inhibition, lysed cell LDH assay, prostate cancer cell line; type: cell-based; conditions: 96 hours, 100% = no drug treatment (Table 3);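 also: 100% is cells receiving no drug treatment and 0% is wells without cells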
Experimental: To determine whether Risperidone could be effective in inhibiting growth of cancer cells overexpressing HSD10, a lysed cell LDH assay was conducted using cells from a PC3 cell line.
as §1, §2
To determine the optimal concentration of Risperidone and CLA necessary to inhibit cell growth, a lysed cell LDH assay was conducted using various concentration of Risperidone and CLA. PC3 cells were cultured and a lysed cell LDH assay was conducted as described above, except that the various drug treatments evaluated contained either 0 μM, 12.5 μM, 25 μM, or 50 μM Risperidone in combination with 0 μM, 6.25 μM, 12.5 μM, 25 μM, 50 μM, or 100 μM CLA (see Table 3).
as §2, with “PBS from the cell cultures described above,” for “PBS,”, “assay.” for “assay (CytoTox 96 Non-radioactive cytotoxicity assay (LDH Assay); Promega, Co., Madison Wis.).”

PC-3M-luc cells = assay: Orthotopic prostate tumor mouse xenograft model; conditions: single drug
Experimental: Immunodeficeint male mice (athymic nude mice) were acclimated to the laboratory for at least one week prior to implantation of tumor. PC-3M-luc cells obtained directly from in vitro culture were then injected into the prostate on Day 0. Animals were divided into six groups of 12 mice each. Primary tumor size and metastases were assessed by bioluminescence measurements on day 6, 13, 20, 27, 34, and 40. On day 7 a five week treatment regime was initiated. Both individual drug and high and low dose combination were examined by administering the drugs twice daily on an individual body weight basis using a dose escalation protocol (Table 7). If tumors grew above a pre-determined level, or mice lost more than 10% of bodyweight, they were culled. The primary tumor was excised, weighed and measured. Individual organs were imaged to assess metastatic burden.

BxPC-3 cells = assay: Orthotopic pancreatic tumor mouse xenograft model; type: in vivo, mice (athymic nude mice); set-up: key to Pancreatic tumor weight, vs vehicle / Bioluminescence imaging Area, vs vehicle / Bioluminescence imaging Average radiation, vs vehicle / Bioluminescence imaging Total flux, vs vehicle / Bioluminescence imaging Area (day 34), vs vehicle / Bioluminescence imaging Average radiation (day 34), vs vehicle / Bioluminescence imaging Total flux (day 34), vs vehicle / Body weight curves, vs vehicle / Body weight at sacrifice relative to Day −1 body weight, vs vehicle: ***: statistically significant difference with p-value <0.001; **: p-value <0.01; *: p-value <0.05; p-value <0.1; NS: Non-Significant; conditions: 60 mg/kg intraperitoneal every third day
Experimental: Animals were divided into four groups of 10 mice each which underwent the following treatment regime: Group 1, daily oral administration of vehicle comprising 1% (v/v) ethanol, 20% (v/v) PEG 400, 79% (v/v) acid solution and 0.4% (w/v) TWEEN™ 80 at a final pH of 3.1-3.3 (Control); Group 2, intraperitoneal administration of 60 mg/kg of Reference Compound gemcitabine every third day for four rounds followed by one week rest before repeating the dosing; Group 3, daily oral administration of 1 mg/kg of Test Compound VAL401; and Group 4, daily administration of 2 mg/kg Test Compound VAL401. Administration of Test and Reference Compounds began on Day 1 and continued until Day 33. Body weights of the animals were measured two times a week throughout the in-life phase and blood samples for PK analyses were collected from saphenous vein from all animals 2 hours after compound administration at study Day 24. […] The animals were sacrificed at Day 34. At the termination, brain tissues were collected and frozen. Tumors were weighed, measured in three dimensions followed by fixation and embedding in paraffin for possible histopathological assessment. Also spleen, liver and lungs were collected for possible analysis.
Statistical analysis was performed with statistical software R (version 3.1.2). The parameters with multiple measurements in different time points per animal were analyzed using mixed-effects models and model contrasts. […] The obtained p-values values were adjusted for multiple comparisons if necessary. The continuous valued end-point parameters were analyzed using parametric or non-parametric test. If the groups were normally distributed with equal variance, parametric one-way ANOVA followed by Tukey's HSD post hoc test was used. If the assumptions were not fulfilled as such or after data transform (e.g. logarithmic), nonparametric Kruskal-Wallis test followed by Mann-Whitney U test was used.

[3] = read-out: Oxidative Activity Drug Inhibition
[4] = read-out: Reductive Activity Drug Inhibition

| SMILES | Cellular Metabolic Activity (PC3 cells [1]; 20 μM fatty acid) | Cellular Metabolic Activity (PC3 cells [1]; 40 μM fatty acid) | Cellular Metabolic Activity (PC3 cells [1]; 60 μM fatty acid) | Cellular Metabolic Activity (PC3 cells [1]; 80 μM fatty acid) | Cellular Metabolic Activity (PC3 cells [1]; 100 μM fatty acid) | inhibition at 50 µM (HSD10; [3]) | inhibition at 50 µM (HSD10; [4]) | also measured |
| --- | --- | --- | --- | --- | --- | --- | --- | --- |
| CCCCC/C=C\C/C=C\C/C=C\C/C=C\CCCC(=O)O [AA, Arachidonic acid] | 107 ± 3.9% | 90 ± 5.6% | 78 ± 6.4% | 66 ± 7.2% | 60 ± 5.9% | – | – | – |
| CC/C=C\C/C=C\C/C=C\CCCCCCCC(=O)O [ALA, α-Linolenic acid] | 118 ± 0.5% | 118 ± 0.9% | 118 ± 0.2% | 117 ± 0.9% | 114 ± 1.2% | – | – | – |
| CN(C)CCCN1c2ccccc2Sc2ccc(Cl)cc21 [Chlorpromazine] | – | – | – | – | – | 8% | 18% | Oxidative Activity Rate (HSD10): 7.7 µM/min; Reductive Activity Rate (HSD10): 7.2 µM/min |
| CN(C)CCCN1c2ccccc2CCc2ccc(Cl)cc21 [Clomipramine] | – | – | – | – | – | 73% | 15% | Oxidative Activity Rate (HSD10): 2.3 µM/min; Reductive Activity Rate (HSD10): 7.5 µM/min |
| CN1CCN(C2=Nc3cc(Cl)ccc3Nc3ccccc32)CC1 [Clozapine] | – | – | – | – | – | 43% | 15% | – |
| CC/C=C\C/C=C\C/C=C\C/C=C\C/C=C\C/C=C\CCC(=O)O [DHA, Docosahexaenoic acid] | 90 ± 8.2% | 74 ± 7.6% | 58 ± 5.9% | 49 ± 7.7% | 34 ± 7.0% | – | – | metabolic inhibition (PC3 cells [1]; 60-100 μM range): 40-65%; Percentage of Lysed Cells (PC3 cells [2]; 12.5 μM of each drug): 109 ± 1.1%; Percentage of Lysed Cells (PC3 cells [2]; 25 μM of each drug): 102 ± 3.5%; Percentage of Lysed Cells (PC3 cells [2]; 50 μM of each drug): 95 ± 3.8% |
| CN(C)CCOC(c1ccccc1)c1ccccc1 [Diphenhydramine] | – | – | – | – | – | 5% | 6% | Oxidative Activity Rate (HSD10): 8.0 µM/min; Reductive Activity Rate (HSD10): 8.3 µM/min |
| CC(=O)O[C@@]12CO[C@@H]1C[C@H](O)[C@@]1(C)C(=O)[C@H](O)C3=C(C)[C@@H](OC(=O)[C@H](O)[C@@H](NC(=O)OC(C)(C)C)c4ccccc4)C[C@@](O)([C@@H](OC(=O)c4ccccc4)[C@H]21)C3(C)C [Docetaxel] | – | – | – | – | – | – | – | body weight throughout the study (PC-3M-luc cells; by Day 40): on a trend of losing weight; Tumor Growth Inhibition (PC-3M-luc cells; calculated on Day 34, dosing per Table 7): 94%; Animal Survival (overall survivorship) (PC-3M-luc cells; day 40, dosing per Table 7): 100% |
| CC/C=C\C/C=C\C/C=C\C/C=C\C/C=C\CCCC(=O)O [EPA, Eicosapentaenoic acid] | 94 ± 9.4% | 71 ± 8.2% | 67 ± 7.4% | 49 ± 7.4% | 37 ± 5.9% | – | – | metabolic inhibition (PC3 cells [1]; 80-100 μM range): 50-65% |
| Nc1ccn([C@@H]2O[C@H](CO)[C@@H](O)C2(F)F)c(=O)n1 [Gemcitabine, gemcitabine] | – | – | – | – | – | – | – | Bioluminescence imaging Area (day 34), vs vehicle (BxPC-3 cells): NS; Bioluminescence imaging Area, vs vehicle (BxPC-3 cells): NS; Bioluminescence imaging Average radiation (day 34), vs vehicle (BxPC-3 cells): NS; Bioluminescence imaging Average radiation, vs vehicle (BxPC-3 cells): NS; Bioluminescence imaging Total flux (day 34), vs vehicle (BxPC-3 cells): NS; Bioluminescence imaging Total flux, vs vehicle (BxPC-3 cells): NS; Body weight at sacrifice relative to Day −1 body weight, vs vehicle (BxPC-3 cells): NS; Body weight curves, vs vehicle (BxPC-3 cells): NS; Pancreatic tumor volume, vs vehicle (BxPC-3 cells): ↓**; Pancreatic tumor weight, vs vehicle (BxPC-3 cells): NS |
| CCCCCCCC/C=C\CCCCCCCC(=O)O [OA, Oleic acid] | 109 ± 2.7% | 108 ± 0.9% | 111 ± 2.2% | 110 ± 2.2% | 111 ± 2.0% | – | – | – |
| CCCCCC[C@@H](O)C/C=C\CCCCCCCC(=O)O [RA, Ricinoleic acid] | 91 ± 6.0% | 94 ± 4.7% | 90 ± 6.2% | 90 ± 6.0% | 94 ± 3.1% | – | – | – |
